These results are taken from ChEMBL document CHEMBL1159385, “Euphane and tirucallane triterpenes from the roots of Euphorbia kansui and their in vitro effects on the cell division of Xenopus” (2003).

The species entered for assay [1] is Xenopus laevis. Put plainly: Induction of cell cleavage arrest in Xenopus laevis blastular stage cells at 10 ug/mL. It is filed as functional, Blastula stage.
The species named for assay [2] is Xenopus laevis. Put plainly: Growth inhibition of Xenopus laevis blastular stage cells at 10 ug/mL. The settings on record: Blastula stage, read-out: GI. Format: functional.

`CC(C)=CCC[C@H](C)[C@@H]1CC[C@]2(C)C3=C(CC[C@@]12C)[C@@]1(C)CC[C@H](O)C(C)(C)[C@@H]1CC3=O` gave an Activity in assay [1] greater than 50%.

Regarding `O=c1[nH]cc(F)c(=O)[nH]1` [FLUOROURACIL], the inhibition of growth at 10 µg/mL in assay [2] came to 47%.

As to `CC(C)=CCC[C@@H](C)[C@@H]1CC[C@]2(C)C3=C(CC[C@@]12C)[C@@]1(C)CC[C@H](O)C(C)(C)[C@@H]1CC3=O` [KANSENONE], the Activity in assay [1] is given as greater than 50%.
